Experimental data reported in US20260224716A1, “PTH ANALOGS FOR THE TREATMENT OF HYPOPARATHYROIDISM” (priority 2020, published 2026).
*1 amine or outer side, *2 acyl side, *3 side chain or, on linkers, in order; H or OH if unused. Where a SMILES comes first, the peptide text is derived from it. Side-chain parts run from the residue outwards. The star is where a group is joined. C18 diacid = O=C(O)CCCCCCCCCCCCCCCCC(=O)*; γGlu = O=C(O)[C@H](CCC(=O)[*:2])N[*:1]; AEEA = NCCOCCOCC(=O)O

What was measured:
[1] = Cleavage half-life / conversion of PTH prodrugs in PBS pH 7.4, 37° C. by LC-MS; type: physicochemical
Protocol: The resulting solution was incubated at 37° C. Aliquots were taken at designed time points and analyzed by LC-MS. […] Flow rate of 1 mL/min and a gradient of 10%-80% acetonitrile in water, with 0.1% trifluoroacetic acid over 10 min. […] The concentration of prodrug and drug were determined by their relative peak areas. The […] dissociation rate constant of the prodrug was determined by plotting the logarithm in the concentration of the prodrug at various time points.

PTHR1 = target: T1, PTHR1 (Homo sapiens, UniProt Q03431); experiment: cAMP Hunter Teriparatide Bioassay (CHO-K1 PTHR1 cells); type: cell-based
T1 construct: host or cells: CHO-K1
T1 sequence (Q03431 27-593): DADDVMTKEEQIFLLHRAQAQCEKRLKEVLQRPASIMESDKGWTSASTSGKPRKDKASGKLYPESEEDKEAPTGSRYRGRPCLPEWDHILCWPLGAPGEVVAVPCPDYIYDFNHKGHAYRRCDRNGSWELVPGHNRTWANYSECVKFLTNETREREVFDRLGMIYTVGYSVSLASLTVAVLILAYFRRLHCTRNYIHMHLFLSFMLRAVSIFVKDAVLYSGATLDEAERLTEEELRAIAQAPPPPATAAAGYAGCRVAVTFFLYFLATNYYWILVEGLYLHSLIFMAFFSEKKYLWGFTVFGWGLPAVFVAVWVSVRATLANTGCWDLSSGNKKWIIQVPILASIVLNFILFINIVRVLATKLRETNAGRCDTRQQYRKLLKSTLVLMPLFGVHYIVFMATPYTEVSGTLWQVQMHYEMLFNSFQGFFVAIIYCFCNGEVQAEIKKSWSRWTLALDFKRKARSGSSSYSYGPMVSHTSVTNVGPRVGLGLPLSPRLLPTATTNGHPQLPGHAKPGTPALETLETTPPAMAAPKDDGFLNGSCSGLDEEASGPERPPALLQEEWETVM
Protocol: The assessment of the bioactivity of a prodrug relative to its drug form was conducted in a proprietary commercial assay as contracted with Eurofins-Discover Rx Corporation win a cAMP Hunter® Teriparatide Bioassay (95-0118Y2). An 11-point dose curve in agonist mode was conducted for each individual peptide or incubation condition. Every sample was run at each dose in triplicate.
An 11-point dose curve in agonist mode was conducted for each individual peptide or incubation condition. Every sample was run at each dose in triplicate.
An 11-point dose curve in agonist mode was conducted for each individual peptide at each concentration. Every sample was run at each dose in triplicate.

With CC[C@H](C)[C@H](NC(=O)[C@H](CCC(=O)O)NC(=O)[C@H](CO)NC(=O)[C@@H](NC(=O)[C@H](CO)NC(=O)CN(C(=O)[C@H](N)CCCCNC(=O)CC[C@H](NC(=O)CCCCCCCCCCCCCCCCC(=O)O)C(=O)O)C(C)C)C(C)C)C(=O)N[C@@H](CCC(N)=O)C(=O)N[C@@H](CC(C)C)C(=O)N[C@@H](CCSC)C(=O)N[C@@H](Cc1c[nH]cn1)C(=O)N[C@@H](CC(N)=O)C(=O)N[C@@H](CC(C)C)C(=O)NCC(=O)N[C@@H](CCCCN)C(=O)N[C@@H](Cc1c[nH]cn1)C(=O)N[C@@H](CC(C)C)C(=O)N[C@@H](CC(N)=O)C(=O)N[C@@H](CO)C(=O)N[C@@H](CCSC)C(=O)N[C@@H](CCC(=O)O)C(=O)N[C@@H](CCCNC(=N)N)C(=O)N[C@H](C(=O)N[C@@H](CCC(=O)O)C(=O)N[C@@H](Cc1c[nH]c2ccccc12)C(=O)N[C@@H](CC(C)C)C(=O)N[C@@H](CCCNC(=N)N)C(=O)N[C@@H](CCCCN)C(=O)N[C@@H](CCCCN)C(=O)N[C@@H](CC(C)C)C(=O)N[C@@H](CCC(N)=O)C(=O)N[C@@H](CC(=O)O)C(=O)N[C@H](C(=O)N[C@@H](Cc1c[nH]cn1)C(=O)N[C@@H](CC(N)=O)C(=O)N[C@@H](Cc1ccccc1)C(=O)O)C(C)C)C(C)C [SEQ ID NO: 46] the half-life ([1]; PBS buffer, dipeptide cleavage from PTH prodrug, PBS pH 7.4, 37° C., read-out: Half life (converted)) was 47 h and the “Half life, fold faster (vs SEQ ID NO: 45)” value ([1]; comparator SEQ ID NO: 45) was 1.9 faster than Sar.
CC[C@H](C)[C@H](NC(=O)[C@H](CCC(=O)O)NC(=O)[C@H](CO)NC(=O)[C@@H](NC(=O)[C@@H](N)CO)C(C)C)C(=O)N[C@@H](CCC(N)=O)C(=O)N[C@@H](CC(C)C)C(=O)N[C@@H](CCSC)C(=O)N[C@@H](Cc1c[nH]cn1)C(=O)N[C@@H](CC(N)=O)C(=O)N[C@@H](CC(C)C)C(=O)NCC(=O)N[C@@H](CCCCN)C(=O)N[C@@H](Cc1c[nH]cn1)C(=O)N[C@@H](CC(C)C)C(=O)N[C@@H](CC(N)=O)C(=O)N[C@@H](CO)C(=O)N[C@@H](CC[S+](C)[O-])C(=O)N[C@@H](CCC(=O)O)C(=O)N[C@@H](CCCNC(=N)N)C(=O)N[C@H](C(=O)N[C@@H](CCC(=O)O)C(=O)N[C@@H](Cc1c[nH]c2ccccc12)C(=O)N[C@@H](CC(C)C)C(=O)N[C@@H](CCCNC(=N)N)C(=O)N[C@@H](CCCCN)C(=O)N[C@@H](CCCCN)C(=O)N[C@@H](CC(C)C)C(=O)N[C@@H](CCC(N)=O)C(=O)N[C@@H](CC(=O)O)C(=O)N[C@H](C(=O)N[C@@H](Cc1c[nH]cn1)C(=O)N[C@@H](CCCCNC(=O)CC[C@H](NC(=O)COCCOCCNC(=O)COCCOCCNC(=O)CC[C@H](NC(=O)CCCCCCCCCCCCCCCCC(=O)O)C(=O)O)C(=O)O)C(=O)O)C(C)C)C(C)C (stereo partly shown) [SEQ ID NO: 110] showed a Hillslope (PTHR1; FIG. 12) of 3.034 and a S/B (PTHR1; FIG. 12) of 14.2.
CC[C@H](C)[C@H](NC(=O)[C@H](CCC(=O)O)NC(=O)[C@H](CO)NC(=O)[C@@H](NC(=O)[C@@H](N)CO)C(C)C)C(=O)N[C@@H](CCC(=O)O)C(=O)N[C@@H](CC(C)C)C(=O)N[C@@H](CCSC)C(=O)N[C@@H](Cc1c[nH]cn1)C(=O)N[C@@H](CC(N)=O)C(=O)N[C@@H](CC(C)C)C(=O)NCC(=O)N[C@@H](CCCCN)C(=O)N[C@@H](Cc1c[nH]cn1)C(=O)N[C@@H](CC(C)C)C(=O)N[C@@H](CC(N)=O)C(=O)N[C@@H](CO)C(=O)N[C@@H](CCSC)C(=O)N[C@@H](CCC(=O)O)C(=O)N[C@@H](CCCNC(=N)N)C(=O)N[C@H](C(=O)N[C@@H](CCC(=O)O)C(=O)N[C@@H](Cc1c[nH]c2ccccc12)C(=O)N[C@@H](CC(C)C)C(=O)N[C@@H](CCCNC(=N)N)C(=O)N[C@@H](CCCCN)C(=O)N[C@@H](CCCCN)C(=O)N[C@@H](CC(C)C)C(=O)N[C@@H](CCC(N)=O)C(=O)N[C@@H](CC(=O)O)C(=O)N[C@H](C(=O)N[C@@H](Cc1c[nH]cn1)C(=O)N[C@@H](CCCCNC(=O)CC[C@H](NC(=O)COCCOCCNC(=O)COCCOCCNC(=O)CC[C@H](NC(=O)CCCCCCCCCCCCCCCCC(=O)O)C(=O)O)C(=O)O)C(=O)O)C(C)C)C(C)C [SEQ ID NO: 118] (H-SVSEIELMHNLGKHLNSMERVEWLRKKLQDVHK([γGlu-AEEA-AEEA-γGlu-C18 diacid])-OH; N-terminus and C-terminus assumed) gave a Hillslope (PTHR1; FIG. 13A) of 1.648 and a S/B (PTHR1; FIG. 13A) of 9.4.
Work on CC[C@H](C)[C@H](NC(=O)[C@H](CCC(=O)O)NC(=O)[C@H](CO)NC(=O)[C@@H](NC(=O)[C@@H](N)CO)C(C)C)C(=O)N[C@@H](CCC(N)=O)C(=O)N[C@@H](CC(C)C)C(=O)N[C@@H](CCSC)C(=O)N[C@@H](Cc1c[nH]cn1)C(=O)N[C@@H](CC(=O)O)C(=O)N[C@@H](CC(C)C)C(=O)NCC(=O)N[C@@H](CCCCN)C(=O)N[C@@H](Cc1c[nH]cn1)C(=O)N[C@@H](CC(C)C)C(=O)N[C@@H](CC(N)=O)C(=O)N[C@@H](CO)C(=O)N[C@@H](CCSC)C(=O)N[C@@H](CCC(=O)O)C(=O)N[C@@H](CCCNC(=N)N)C(=O)N[C@H](C(=O)N[C@@H](CCC(=O)O)C(=O)N[C@@H](Cc1c[nH]c2ccccc12)C(=O)N[C@@H](CC(C)C)C(=O)N[C@@H](CCCNC(=N)N)C(=O)N[C@@H](CCCCN)C(=O)N[C@@H](CCCCN)C(=O)N[C@@H](CC(C)C)C(=O)N[C@@H](CCC(N)=O)C(=O)N[C@@H](CC(=O)O)C(=O)N[C@H](C(=O)N[C@@H](Cc1c[nH]cn1)C(=O)N[C@@H](CCCCNC(=O)CC[C@H](NC(=O)COCCOCCNC(=O)COCCOCCNC(=O)CC[C@H](NC(=O)CCCCCCCCCCCCCCCCC(=O)O)C(=O)O)C(=O)O)C(=O)O)C(C)C)C(C)C [SEQ ID NO: 120] (H-SVSEIQLMHDLGKHLNSMERVEWLRKKLQDVHK([γGlu-AEEA-AEEA-γGlu-C18 diacid])-OH) yielded a Hillslope (PTHR1; FIG. 13A) of 2.804 and a S/B (PTHR1; FIG. 13A) of 10.
CC[C@H](C)[C@H](NC(=O)[C@H](CCC(=O)O)NC(=O)[C@H](CO)NC(=O)[C@@H](NC(=O)[C@@H](N)CO)C(C)C)C(=O)N[C@@H](CCC(N)=O)C(=O)N[C@@H](CC(C)C)C(=O)N[C@@H](CCSC)C(=O)N[C@@H](Cc1c[nH]cn1)C(=O)N[C@@H](CC(N)=O)C(=O)N[C@@H](CC(C)C)C(=O)NCC(=O)N[C@@H](CCCCN)C(=O)N[C@@H](Cc1c[nH]cn1)C(=O)N[C@@H](CC(C)C)C(=O)N[C@@H](CC(=O)O)C(=O)N[C@@H](CO)C(=O)N[C@@H](CCSC)C(=O)N[C@@H](CCC(=O)O)C(=O)N[C@@H](CCCNC(=N)N)C(=O)N[C@H](C(=O)N[C@@H](CCC(=O)O)C(=O)N[C@@H](Cc1c[nH]c2ccccc12)C(=O)N[C@@H](CC(C)C)C(=O)N[C@@H](CCCNC(=N)N)C(=O)N[C@@H](CCCCN)C(=O)N[C@@H](CCCCN)C(=O)N[C@@H](CC(C)C)C(=O)N[C@@H](CCC(N)=O)C(=O)N[C@@H](CC(=O)O)C(=O)N[C@H](C(=O)N[C@@H](Cc1c[nH]cn1)C(=O)N[C@@H](CCCCNC(=O)CC[C@H](NC(=O)COCCOCCNC(=O)COCCOCCNC(=O)CC[C@H](NC(=O)CCCCCCCCCCCCCCCCC(=O)O)C(=O)O)C(=O)O)C(=O)O)C(C)C)C(C)C [SEQ ID NO: 122] (H-SVSEIQLMHNLGKHLDSMERVEWLRKKLQDVHK([γGlu-AEEA-AEEA-γGlu-C18 diacid])-OH; N-terminus and C-terminus assumed) gave a Hillslope (PTHR1; FIG. 13B) of 2.522 and a S/B (PTHR1; FIG. 13B) of 8.2.
Compound CC[C@H](C)[C@H](NC(=O)[C@H](CCC(=O)O)NC(=O)[C@H](CO)NC(=O)[C@@H](NC(=O)[C@@H](N)CO)C(C)C)C(=O)N[C@@H](CCC(N)=O)C(=O)N[C@@H](CC(C)C)C(=O)N[C@@H](CCSC)C(=O)N[C@@H](Cc1c[nH]cn1)C(=O)N[C@@H](CC(N)=O)C(=O)N[C@@H](CC(C)C)C(=O)NCC(=O)N[C@@H](CCCCN)C(=O)N[C@@H](Cc1c[nH]cn1)C(=O)N[C@@H](CC(C)C)C(=O)N[C@@H](CC(N)=O)C(=O)N[C@@H](CO)C(=O)N[C@@H](CCSC)C(=O)N[C@@H](CCC(=O)O)C(=O)N[C@@H](CCCNC(=N)N)C(=O)N[C@H](C(=O)N[C@@H](CCC(=O)O)C(=O)N[C@@H](Cc1c[nH]c2ccccc12)C(=O)N[C@@H](CC(C)C)C(=O)N[C@@H](CCCNC(=N)N)C(=O)N[C@@H](CCCCN)C(=O)N[C@@H](CCCCN)C(=O)N[C@@H](CC(C)C)C(=O)N[C@@H](CCC(=O)O)C(=O)N[C@@H](CC(=O)O)C(=O)N[C@H](C(=O)N[C@@H](Cc1c[nH]cn1)C(=O)N[C@@H](CCCCNC(=O)CC[C@H](NC(=O)COCCOCCNC(=O)COCCOCCNC(=O)CC[C@H](NC(=O)CCCCCCCCCCCCCCCCC(=O)O)C(=O)O)C(=O)O)C(=O)O)C(C)C)C(C)C [SEQ ID NO: 124] (H-SVSEIQLMHNLGKHLNSMERVEWLRKKLEDVHK([γGlu-AEEA-AEEA-γGlu-C18 diacid])-OH; N-terminus and C-terminus assumed) has a Hillslope (PTHR1; FIG. 13B) of 1.797 and a S/B (PTHR1; FIG. 13B) of 8.9.
“SEQ ID NO: 109: PTH analog site-specifically modified by oxidation to methionine sulfoxide (SVSEIQLXHNLGKHLNSMERVEWLRKKLQDVHX; SITE 8 MISC_FEATURE - Xaa at position 8 is Met wherein the side chain is oxidized to form a sulfoxide; SITE 33 MISC_FEATURE - Xaa at position 33 is Lys wherein the side chain is acylated with COC16H32CO2H via a gamma Glu-(MINIPEG)2-gamma Glu spacer; listed as Homo sapiens)” gave a S/B (PTHR1; FIG. 12) of 1.7.
